Results as given in ChEMBL document CHEMBL6092167, “Phosphorylation as an Effective Tool to Improve Stability and Reduce Toxicity of Antimicrobial Peptides” (J Med Chem, 2024).
Calls of active or inactive are those of the source. The rule behind the calls is not given here. Positions of bridges follow the written chain, without caps; N, C: chain ends. Non-standard residues stand in square brackets, D forms with d. Residues, ends and D or L forms follow the SMILES beside them. *: point of attachment. X1 = CC[C@H](C)CCCCC(=O)*; dDab = NCC[C@@H](N)C(=O)O; Dab = NCC[C@H](N)C(=O)O

Key:
[1] = Hemolytic activity in mouse erythrocyte incubated for 1 hr by microplate reader assay; assay type: toxicity, cell-based
[2] = Cytotoxicity against HEK293T cells incubated for 1 hr by fluorescence based microplate reader assay; assay type: toxicity, cell-based, HEK-293T; conditions: human
[3] = Toxicity in ip dosed BALB/c mouse assessed as respiratory depression at LD50 dose measured within 1 hr by Karber method; assay type: organism-based; conditions: in vivo
[4] = Toxicity in ip dosed BALB/c mouse assessed as rapid death at LD50 dose measured within 1 hr by Karber method; assay type: organism-based; conditions: in vivo
[5] = Toxicity in ip dosed BALB/c mouse assessed as lateral recumbency at LD50 dose measured within 1 hr by Karber method; assay type: organism-based; conditions: in vivo
[6] = Toxicity in ip dosed BALB/c mouse assessed as convulsions at LD50 dose measured within 1 hr by Karber method; assay type: organism-based; conditions: in vivo
[7] = Toxicity in ip dosed BALB/c mouse assessed as lusterless hair at LD50 dose measured within 1 hr by Karber method; assay type: organism-based; conditions: in vivo
[8] = Toxicity in ip dosed BALB/c mouse assessed as sharp breathing at LD50 dose measured within 1 hr by Karber method; assay type: organism-based; conditions: in vivo
[9] = Toxicity in ip dosed BALB/c mouse measured after 14 days; assay type: organism-based; conditions: in vivo, time 14 day
[10] = Toxicity in ip dosed BALB/c mouse assessed as hemorrhage in lung at LD50 dose by H and E staining based assay; assay type: organism-based; conditions: in vivo
[11] = Toxicity in ip dosed BALB/c mouse assessed as inflammatory cell infiltration in lung at LD50 dose by H and E staining based assay; assay type: organism-based; conditions: in vivo
[12] = Toxicity in ip dosed BALB/c mouse assessed as hemorrhage in kidney at LD50 dose by H and E staining based assay; assay type: organism-based; conditions: in vivo
[13] = Toxicity in ip dosed BALB/c mouse assessed as inflammatory cell infiltration in kidney at LD50 dose by H and E staining based assay; assay type: organism-based; conditions: in vivo
[14] = Toxicity in ip dosed BALB/c mouse assessed as alveolar constriction at LD50 dose by H and E staining based assay; assay type: organism-based; conditions: in vivo
[15] = Toxicity in ip dosed BALB/c mouse assessed as pulmonary congestion at LD50 dose by H and E staining based assay; assay type: organism-based; conditions: in vivo
[16] = Toxicity in ip dosed BALB/c mouse assessed as renal cell swelling at LD50 dose by H and E staining based assay; assay type: organism-based; conditions: in vivo
Staphylococcus aureus [17] = assay: Antibacterial activity against methicillin resistant Staphylococcus aureus ATCC 33591 incubated for 18 to 24 hrs by broth microdilution method; assay type: functional; conditions: time 18-24 hrs
Staphylococcus aureus [18] = assay: Antibacterial activity against methicillin resistant Staphylococcus aureus 48 incubated for 18 to 24 hrs by broth microdilution method; assay type: functional; conditions: time 18-24 hrs
Staphylococcus aureus [19] = assay: Antibacterial activity against Staphylococcus aureus 794 incubated for 18 to 24 hrs by broth microdilution method; assay type: functional; conditions: time 18-24 hrs
Escherichia coli [20] = assay: Antibacterial activity against Escherichia coli 780 incubated for 18 to 24 hrs by broth microdilution method; assay type: functional; conditions: time 18-24 hrs
Escherichia coli [21] = assay: Antibacterial activity against Escherichia coli 850 incubated for 18 to 24 hrs by broth microdilution method; assay type: functional; conditions: time 18-24 hrs
Pseudomonas aeruginosa [22] = assay: Antibacterial activity against Pseudomonas aeruginosa 119 incubated for 18 to 24 hrs by broth microdilution method; assay type: functional; conditions: time 18-24 hrs
Staphylococcus aureus [23] = assay: Antibacterial activity against Staphylococcus aureus ATCC 25923 incubated for 18 to 24 hrs by broth microdilution method; assay type: functional; conditions: time 18-24 hrs
Bacillus subtilis = assay: Antibacterial activity against Bacillus subtilis ATCC 23857 incubated for 18 to 24 hrs by broth microdilution method; assay type: functional; conditions: time 18-24 hrs
Escherichia coli [24] = assay: Antibacterial activity against Escherichia coli ATCC 25922 incubated for 18 to 24 hrs by broth microdilution method; assay type: functional; conditions: time 18-24 hrs
Pseudomonas aeruginosa [25] = assay: Antibacterial activity against Pseudomonas aeruginosa ATCC 27853 incubated for 18 to 24 hrs by broth microdilution method; assay type: functional; conditions: time 18-24 hrs
Klebsiella pneumoniae [26] = assay: Antibacterial activity against Klebsiella pneumoniae ATCC 700603 incubated for 18 to 24 hrs by broth microdilution method; assay type: functional; conditions: time 18-24 hrs
Acinetobacter baumannii = assay: Antibacterial activity against Acinetobacter baumannii ATCC 19606 incubated for 18 to 24 hrs by broth microdilution method; assay type: functional; conditions: time 18-24 hrs
Staphylococcus aureus [27] = assay: Antibacterial activity against Staphylococcus aureus ATCC 25923 assessed as fold increase in MIC in presence of Na+; assay type: functional
Staphylococcus aureus [28] = assay: Bactericidal activity against Staphylococcus aureus ATCC 25923 at 2 times MIC incubated for 24 hrs by time kill assay; assay type: functional
Klebsiella pneumoniae [29] = assay: Synergistic antibacterial activity against Klebsiella pneumoniae ATCC 700603 assessed as fractional inhibitory concentration index at 1/4 to 4 times MIC incubated for 18 to 24 hrs in presence of ciprofloxacin by checkerboard assay; assay type: functional; conditions: time 18-24 hrs
Klebsiella pneumoniae [30] = assay: Additive antibacterial activity against Klebsiella pneumoniae ATCC 700603 assessed as fractional inhibitory concentration index at 1/4 to 4 times MIC incubated for 18 to 24 hrs in presence of kanamycin by checkerboard assay; assay type: functional; conditions: time 18-24 hrs
Klebsiella pneumoniae [31] = assay: Drug resistance development in Klebsiella pneumoniae ATCC 700603 assessed as fold increase in MIC measured after 20 passage; assay type: functional
Klebsiella pneumoniae [32] = assay: Antibacterial activity against Klebsiella pneumoniae 700603 preincubated for 6 hrs in presence of trypsin followed by heat inactivation for 15 mins prior to bacterial addition and measured after 18 to 24 hrs by microplate reader assay; assay type: functional, organism-based; conditions: time 18-24 hrs
Staphylococcus aureus [33] = assay: Antibacterial activity against Staphylococcus aureus ATCC 25923 preincubated for 6 hrs in presence of trypsin followed by heat inactivation for 15 mins prior to bacterial addition and measured after 18 to 24 hrs by microplate reader assay; assay type: functional, organism-based; conditions: time 18-24 hrs
Klebsiella pneumoniae [34] = assay: Antibacterial activity against Klebsiella pneumoniae 700603 preincubated for 6 hrs in presence of chymotrypsin followed by heat inactivation for 15 mins prior to bacterial addition and measured after 18 to 24 hrs by microplate reader assay; assay type: functional, organism-based; conditions: time 18-24 hrs
Staphylococcus aureus [35] = assay: Antibacterial activity against Staphylococcus aureus ATCC 25923 preincubated for 6 hrs in presence of chymotrypsin followed by heat inactivation for 15 mins prior to bacterial addition and measured after 18 to 24 hrs by microplate reader assay; assay type: functional, organism-based; conditions: time 18-24 hrs
Pseudomonas aeruginosa [36] = assay: Antibiofilm activity against Pseudomonas aeruginosa ATCC 27853 assessed as eradication of preformed biofilms at 4 times MIC incubated for 24 hrs by crystal violet staining based assay; assay type: functional, organism-based
Escherichia coli [37] = assay: Antibiofilm activity against Escherichia coli ATCC 25922 assessed as eradication of preformed biofilms at 4 times MIC incubated for 24 hrs by crystal violet staining based assay; assay type: functional, organism-based
Klebsiella pneumoniae [38] = assay: Antibiofilm activity against Klebsiella pneumoniae ATCC 700603 assessed as eradication of preformed biofilms at 4 times MIC incubated for 24 hrs by crystal violet staining based assay; assay type: functional, organism-based
Klebsiella pneumoniae [39] = assay: Antibacterial activity against Klebsiella pneumoniae ATCC 700603 infected in BALB/c mouse lung infection model assessed as reduction in hepatic hemorrhage at 2.46 mg/kg, ip administered twice daily for 3 days and measured after 7 days; assay type: functional, organism-based; conditions: time 10.0 day
Klebsiella pneumoniae [40] = assay: Antibacterial activity against Klebsiella pneumoniae ATCC 700603 infected in BALB/c mouse lung infection model assessed as reduction in alveolar contraction at 2.46 mg/kg, ip administered twice daily for 3 days and measured after 7 days; assay type: functional, organism-based; conditions: time 10.0 day
Klebsiella pneumoniae [41] = assay: Antibacterial activity against Klebsiella pneumoniae ATCC 700603 infected in BALB/c mouse lung infection model assessed as reduction in pulmonary tissue bleeding at 2.46 mg/kg, ip administered twice daily for 3 days and measured after 7 days; assay type: functional, organism-based; conditions: time 10.0 day

Q: With CC(C)CCCCC(=O)N[C@@H](CCN)C(=O)N[C@H](C(=O)N[C@@H](CCN)C(=O)N[C@H]1CCNC(=O)[C@H]([C@@H](C)O)NC(=O)[C@H](CCN)NC(=O)[C@H](CCN)NC(=O)[C@H](CC(C)C)NC(=O)[C@@H](Cc2ccccc2)NC(=O)[C@H](CCN)NC1=O)[C@@H](C)O.CC[C@H](C)CCCCC(=O)N[C@@H](CCN)C(=O)N[C@H](C(=O)N[C@@H](CCN)C(=O)N[C@H]1CCNC(=O)[C@H]([C@@H](C)O)NC(=O)[C@H](CCN)NC(=O)[C@H](CCN)NC(=O)[C@H](CC(C)C)NC(=O)[C@@H](Cc2ccccc2)NC(=O)[C@H](CCN)NC1=O)[C@@H](C)O (X1-[Dab]T[Dab][Dab][Dab][dF]L[Dab][Dab]T; lactam 4-C) [listing 1 of 2 here] as the compound, how does the MHC [1] read?
A: > 256 µM

Q: What about the CC50 at 1 h [2] of the same compound?
A: 128 µM

Q: What about the Activity [3] of the same compound?
A: Toxic

Q: And the Activity [4]?
A: Toxic

Q: What about the Activity [5] of the same compound?
A: Toxic

Q: And the Activity [6]?
A: Toxic

Q: What about the Activity [7] of the same compound?
A: Toxic

Q: And the Activity [8]?
A: Toxic

Q: What about the LD50 at 336 h [9] of the same compound?
A: 25.7 mg/kg

Q: What about the Activity [10] of the same compound?
A: Toxic

Q: What about the Activity [11] of the same compound?
A: Toxic

Q: And the Activity [12]?
A: Toxic

Q: And the Activity [13]?
A: Toxic

Q: What about the Activity [14] of the same compound?
A: Toxic

Q: And the Activity [15]?
A: Toxic

Q: What about the Activity [16] of the same compound?
A: Toxic

Q: For CC(C)CCCCC(=O)N[C@@H](CCN)C(=O)N[C@H](C(=O)N[C@@H](CCN)C(=O)N[C@H]1CCNC(=O)[C@H]([C@@H](C)O)NC(=O)[C@H](CCN)NC(=O)[C@H](CCN)NC(=O)[C@H](CC(C)C)NC(=O)[C@@H](Cc2ccccc2)NC(=O)[C@H](CCN)NC1=O)[C@@H](C)O.CC[C@H](C)CCCCC(=O)N[C@@H](CCN)C(=O)N[C@H](C(=O)N[C@@H](CCN)C(=O)N[C@H]1CCNC(=O)[C@H]([C@@H](C)O)NC(=O)[C@H](CCN)NC(=O)[C@H](CCN)NC(=O)[C@H](CC(C)C)NC(=O)[C@@H](Cc2ccccc2)NC(=O)[C@H](CCN)NC1=O)[C@@H](C)O (X1-[Dab]T[Dab][Dab][Dab][dF]L[Dab][Dab]T; lactam 4-C) [listing 2 of 2 here], which MIC (Staphylococcus aureus [17]) is on record?
A: 16 µM

Q: And the MIC (Staphylococcus aureus [18])?
A: 16 µM

Q: And the MIC (Staphylococcus aureus [19])?
A: 8 µM

Q: What about the MIC (Escherichia coli [20]) of the same compound?
A: 2 µM

Q: And the MIC (Escherichia coli [21])?
A: 2 µM

Q: And the MIC (Pseudomonas aeruginosa [22])?
A: 2 µM

Q: What about the MIC (Staphylococcus aureus [23]) of the same compound?
A: 16 µM

Q: And the MIC (Bacillus subtilis)?
A: 4 µM

Q: What about the MIC (Escherichia coli [24]) of the same compound?
A: 4 µM

Q: What about the MIC (Pseudomonas aeruginosa [25]) of the same compound?
A: 2 µM

Q: What about the MIC (Klebsiella pneumoniae [26]) of the same compound?
A: 4 µM

Q: And the MIC (Acinetobacter baumannii)?
A: 2 µM

Q: And the “fold change (FC)” value (Staphylococcus aureus [27])?
A: 4

Q: What about the Activity (Staphylococcus aureus [28]) of the same compound?
A: 100%

Q: What about the “fractional inhibitory concentration index (FICI)” value (Klebsiella pneumoniae [29]) of the same compound?
A: 0.313

Q: And the “fractional inhibitory concentration index (FICI)” value (Klebsiella pneumoniae [30])?
A: 0.313

Q: And the “fold change (FC)” value (Klebsiella pneumoniae [31])?
A: 64

Q: For CC(C)CCCCC(=O)N[C@@H](CCN)C(=O)N[C@H](C(=O)N[C@@H](CCN)C(=O)N[C@H]1CCNC(=O)[C@H]([C@@H](C)O)NC(=O)[C@H](CCN)NC(=O)[C@H](CCN)NC(=O)[C@H](CC(C)C)NC(=O)[C@@H](Cc2ccccc2)NC(=O)[C@@H](CCN)NC1=O)[C@@H](C)O.CC[C@H](C)CCCCC(=O)N[C@@H](CCN)C(=O)N[C@H](C(=O)N[C@@H](CCN)C(=O)N[C@H]1CCNC(=O)[C@H]([C@@H](C)O)NC(=O)[C@H](CCN)NC(=O)[C@H](CCN)NC(=O)[C@H](CC(C)C)NC(=O)[C@@H](Cc2ccccc2)NC(=O)[C@@H](CCN)NC1=O)[C@@H](C)O (X1-[Dab]T[Dab][Dab][dDab][dF]L[Dab][Dab]T; lactam 4-C), which Activity (Klebsiella pneumoniae [32]) is on record?
A: Active; High Enzymatic Stability

Q: What about the Activity (Staphylococcus aureus [33]) of the same compound?
A: Active; High Enzymatic Stability

Q: And the Activity (Klebsiella pneumoniae [34])?
A: Active; High Enzymatic Stability

Q: What about the Activity (Staphylococcus aureus [35]) of the same compound?
A: Active; High Enzymatic Stability

Q: And the Activity (Pseudomonas aeruginosa [36])?
A: Active

Q: And the Activity (Escherichia coli [37])?
A: Active

Q: What about the Activity (Klebsiella pneumoniae [38]) of the same compound?
A: Active

Q: What about the Activity (Klebsiella pneumoniae [39]) of the same compound?
A: inactive

Q: What about the Activity (Klebsiella pneumoniae [40]) of the same compound?
A: inactive

Q: What about the Activity (Klebsiella pneumoniae [41]) of the same compound?
A: inactive
